Here are results for 32 compounds from PubChem BioAssay (NCI).

Assay in all cases: growth of human tumour cells (NCI), 48 h
The test system of assay [1] is A498 renal.
The test system of assay [2] is SF-539 CNS.
Assay [3] deals with SK-MEL-28 melanoma.
The test system of assay [4] is CAKI-1 renal.
Assay [5] concerns U251 CNS.
Assay [6] deals with PC-3 prostate.
In assay [7] the test system is OVCAR-5 ovarian.
For assay [8], the system named is TK-10 renal.
Assay [9] relates to SK-MEL-5 melanoma.
Assay [10] deals with SK-OV-3 ovarian.

Structures are written as SMILES. Several values for one entry are separate records, joined by “and”; a condition that tells them apart may be missing. Equal values may be shown once.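 Briefly, cells in 96-well plates were exposed to five compound concentrations for 48 h, and endpoints were estimated by linear interpolation. At the GI50, growth is halved. At the TGI there is no net growth.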

In the case of `CC(=O)NC1C(CO)O[C@@H]2OC(C)(C)O[C@H]12` (stereo partly specified), the TGI in assay [1], in [2], in assay [3], in assay [4], in assay [5] and in assay [6] was more than 100 µM throughout. For the same compound, the TGI in [7] and in [8] was more than 100 µM each time.

`CN(C(=O)C1(C(=O)C=[N+]=[N-])CC1)c1ccccc1`: the TGI in [2], in [9], in assay [3], in assay [5], in assay [6] and in [7] was more than 100 µM each time. The TGI in [8] was more than 100 µM.

Consider `O=C(Nn1c(-c2ccccc2)nc2ccccc2c1=O)c1ccccn1`, for which the TGI in assay [1], in assay [2], in assay [9], in assay [10], in assay [3] and in assay [5] was more than 100 µM throughout. The TGI in assay [6] and in assay [8] was more than 100 µM throughout.

`COC(=O)c1sc(=S)sc1SCc1ccccc1CSc1sc(=S)sc1C(=O)OC`: the TGI in [1], in assay [9], in [10], in [3], in [4] and in assay [5] was more than 100 µM throughout. Besides, the TGI in assay [6], in assay [7] and in assay [8] was more than 100 µM throughout.

With `O=C(c1ccc2ccccc2c1)C1S(=O)(=O)OCCOS1(=O)=O`, the TGI in assay [9], in assay [3], in [4], in assay [5], in assay [6] and in assay [7] was more than 100 µM in each case. Also, the TGI in assay [8] is more than 100 µM.

For `COc1cc2cc(C(=O)N3CC(CCl)c4c3cc(N)c3ccccc43)[nH]c2cc1OCCN(C)C` (stereo unspecified), the TGI in [1] was less than 0.005 µM; in [10] it was 0.881 µM; in assay [4], 0.094 µM; in [6], 5.5 µM; in [7] it was 16.3 µM; in [8] it was 8.67 µM.

Turning to `COc1cccc(NC(=O)CSc2nnc(-c3ccc(N=Cc4ccc(Cl)cc4)cc3)o2)c1`, the TGI was 34.6 µM in assay [9]; more than 100 µM in assay [10]; 37.5 µM in assay [3]; 30.8 µM in assay [5]; 74.3 µM in assay [8].

As for `CC1=CC(O)C(O)C2(C)C1CC1OC(=O)C(O)C3C(C)C(O)C4(O)OCC13C42` (stereo unspecified), the TGI in assay [1] stood at 72.1 µM; in assay [2] it was 237 µM; in assay [9], 142 µM; in assay [10], 359 µM; in assay [3], 502 µM; in assay [4], 205 µM. The TGI in assay [5] is 475 µM; in [7] it was more than 454 µM.

Turning to `Cc1cc2ccccc2n1CC(=O)NCC(C)C`, the TGI in assay [2], in [9], in assay [10], in assay [3], in assay [4] and in assay [5] was more than 100 µM in each case. The TGI in assay [6], in [7] and in assay [8] was more than 100 µM throughout.

As for `CN(CCc1ccc(Cl)c(Cl)c1)[C@H]1CCCC[C@H]1N1CCCC1`, the TGI in assay [1], in assay [9], in assay [10], in assay [3], in assay [4] and in assay [5] was more than 100 µM throughout. Further, the TGI in [6], in assay [7] and in assay [8] was more than 100 µM in each case.

Consider `O=S1(=O)NNC(=NCc2ccc(Cl)cc2)c2ccccc21`, for which the TGI in [1], in assay [2], in [9], in [4], in [5] and in [7] was more than 100 µM in each case.

With `COC(=O)[C@H](C)N1C(=O)N[C@@H](C(C)C)C1=O`, the TGI in [2], in assay [9], in assay [10], in [3], in assay [4] and in assay [5] was more than 100 µM throughout. Besides, the TGI in assay [6], in assay [7] and in assay [8] was more than 100 µM each time.

For the compound `Clc1nc(-[n+]2ccc(-c3ccncc3)cc2)nc(Nc2ccccc2)c1Cl`, the TGI in [1], in [2], in assay [9], in assay [10], in assay [3] and in assay [5] was more than 100 µM each time. The TGI in assay [6], in [7] and in assay [8] was more than 100 µM in each case.

With `COc1cc(C2C3=C(CCC3=O)Oc3cc4c(cc32)OCO4)cc(OC)c1OC` (stereo unspecified), the TGI in assay [9] is 15.2 µM; in assay [10], more than 100 µM; in assay [3] it was more than 100 µM; in assay [4] it was 30.3 µM; in [5] it was more than 100 µM; in [7], more than 100 µM. This compound registered a TGI in assay [8] of 69.2 µM.

With `CCCCc1c2c(nc3c1CCc1cc4c(nc1-3)-c1nc3c(c(CCCC)c1CC4)CCC/C3=C\c1ccccc1)/C(=C/c1ccccc1)CCC2`, the TGI in [1], in [2], in assay [9], in assay [10], in [3] and in assay [4] was more than 100 µM throughout. Also, the TGI in assay [5], in assay [7] and in [8] was more than 100 µM each time.

Turning to `Cc1ccc(C(=O)N(C(C)C)C(C)C)cc1N=NN(C)C`, the TGI in [2], in [9], in assay [10], in assay [3], in [4] and in assay [5] was more than 100 µM in each case. Moreover, the TGI in [6], in [7] and in assay [8] was more than 100 µM in each case.

For the compound `Cc1cc(C)c(S(=O)(=O)N(CCCCN)OCCCN)c(C)c1`, the TGI was 41.6 µM in assay [2]; 39.9 µM in assay [9]; 31.8 µM in [10]; 32.4 µM in assay [3]; 31.3 µM in [4]; 28.8 µM in assay [5]. The TGI in assay [6] stood at 27.6 µM; in assay [7] it was 35.6 µM; in assay [8], 32 µM.

In the case of `CCOc1ccc2[nH]c3c(C)c4cc[n+](C)cc4c(C)c3c2c1`, the GI50 in assay [1] was 11.1 µM and 48 µM; in assay [7] it was 10.3 µM and 38.8 µM; in [8], 9.4 µM and 26.6 µM. The TGI in assay [1] is more than 100 µM; in [2] it was 1.63 µM and 2.65 µM; in [9], 4.37 µM and 4.31 µM; in assay [10] it was 60.6 µM and 56.3 µM; in assay [3] it was 7.9 µM and 13 µM; in assay [4] it was more than 35.3 µM. The TGI is 1.08 µM and 1.15 µM in [5]; more than 100 µM in assay [7]; 81.6 µM and > 100 µM in assay [8].

With `CC1(C)O[C@@H](CO)[C@H]([C@@]23OC[C@H]4OC(C)(C)OC4[C@@H]2OC(C)(C)O3)O1` (stereo partly specified), the TGI in assay [9], in assay [10], in assay [3], in assay [5], in assay [6] and in [7] was more than 100 µM in each case.

For the compound `O=c1[nH]c(=O)n(C2OC(COP(=O)(O)OP(=O)(O)O)C(O)C2O)cc1F` (stereo unspecified), the TGI in [1] is more than 50 µM; in [2] it was 17.2 µM; in assay [9], more than 50 µM; in assay [10], 47.8 µM; in assay [3] it was more than 50 µM; in assay [4], 34.8 µM. The TGI in [5] was more than 25.2 µM; in assay [7], more than 44.1 µM; in assay [8] it was more than 50 µM.

Turning to `Nc1nc(Cl)cc(N=Nc2ccccc2)n1`, the TGI was more than 100 µM in assay [1]; more than 100 µM in assay [2]; 40 µM in assay [9]; more than 100 µM in assay [10]; more than 100 µM in [3]; more than 100 µM in [4]. Moreover, the TGI in assay [7] and in [8] was more than 100 µM throughout.

As for `CC1=C(C(=O)OCCc2ccc([N+](=O)[O-])cc2)C(c2ccccc2[N+](=O)[O-])C(C(=O)OC(C)C)=C(C)N1` (stereo unspecified), the TGI in assay [2] is more than 100 µM; in assay [9], 5.14 µM; in assay [10], more than 100 µM; in [3], more than 100 µM; in assay [4], more than 100 µM; in assay [5], more than 100 µM. Moreover, the TGI is 18 µM in assay [6], more than 100 µM in [7] and more than 100 µM in assay [8].

Take `CN1CCn2c(Br)ccc2C1=O`: the TGI in assay [1], in assay [2], in assay [3], in assay [4], in assay [5] and in [8] was more than 100 µM each time.

For `CC(CCC(=O)O)[C@H]1CCC2[C@H]3C(CC[C@@]21C)[C@@]1(C)CCC(O)C[C@H]1C[C@@H]3O` (stereo partly specified), the TGI in [1], in assay [2], in [3], in assay [4], in [5] and in [6] was more than 100 µM in each case. For the same compound, the TGI in [7] and in assay [8] was more than 100 µM in each case.

Take `Cc1c2c3cc(O)ccc3nc-2n(C)c2ccccc12`: the TGI in [2] amounted to 4.98 µM; in [9], 2.29 µM; in [10], 6.22 µM; in assay [3] it was 5.97 µM; in [5], 6.91 µM; in assay [6] it was 5.94 µM. The TGI in assay [7] was 8.85 µM; in assay [8], 9.82 µM.

For the compound `O=C1NC(=S)N/C1=C/c1ccccc1O`, the TGI in [2], in [9], in [10], in [3], in assay [4] and in assay [5] was more than 100 µM each time. The TGI in assay [6], in assay [7] and in assay [8] was more than 100 µM in each case.

For `CC(C)CCC[C@@H](C)[C@H]1CC[C@H]2[C@@H]3CC=C4C[C@@H](OC(=O)c5cccc6c(=O)c7ccccc7[nH]c56)CC[C@]4(C)[C@H]3CC[C@]12C`, the TGI in [1], in assay [2], in assay [9], in assay [10], in [3] and in assay [5] was more than 75 µM each time. The TGI in assay [6], in assay [7] and in [8] was more than 75 µM each time.

As for `CCc1nnc(-n2c(C)nc3cc(Cl)ccc3c2=O)s1`, the TGI was more than 100 µM in assay [1]; 65.9 µM in assay [9]; more than 100 µM in [10]; more than 100 µM in [3]; more than 100 µM in assay [4]; more than 100 µM in assay [5]. In addition, the TGI in [6], in [7] and in assay [8] was more than 100 µM each time.

As to `CC1(C)COC(c2cccc(C3=NC(C)(C)CO3)c2Br)=N1`, the TGI in assay [2], in assay [9], in [3], in [4], in assay [5] and in assay [6] was more than 100 µM throughout. Also, the TGI in assay [7] and in assay [8] was more than 100 µM each time.

In the case of `CCOC(=O)c1ccc(C(=O)C(C(C)=O)C(=O)OC(C)(C)C)n1C` (stereo unspecified), the TGI in [1], in assay [9], in [10], in [3], in [4] and in [5] was more than 100 µM each time. In addition, the TGI in assay [6], in assay [7] and in [8] was more than 100 µM in each case.

With `CN=C(Nn1cnnc1)OC`, the TGI in assay [1], in assay [9], in [10], in assay [3], in assay [4] and in assay [5] was more than 100 µM throughout. Also, the TGI in assay [6] and in assay [7] was more than 100 µM each time.

As for `COC(=O)c1ccc(-c2nc(C#N)c(N)o2)cc1`, the TGI in assay [2], in assay [9], in [10], in assay [3], in [4] and in [5] was more than 100 µM throughout. Also, the TGI in assay [6], in assay [7] and in assay [8] was more than 100 µM throughout.
